Experimental data taken from paper PMC7811808, “Design, synthesis, and biological evaluation of novel 5,6,7-trimethoxy quinolines as potential anticancer agents and tubulin polymerization inhibitors” (Iranian Journal of Basic Medical Sciences, 2020).
Like-named read-outs stand apart in the source and are kept apart here.

Legend:
[1] = system: HUVEC; assay: MTT assay on normal cells; assay type: cell-based; conditions: Homo sapiens, 48 hr
Method: (§1) The MTT assay was done by seeding 5.0×10^3 human cancer cells or normal cells per well in 96-well plates ([34]-[36]). Following overnight incubation of the cells in 5% CO2 at 37 °C, culture medium of each well was exchanged with medium having reference anti-cancer agent CA-4 as well as different concentrations of synthesized compounds and RPMI (no drug) negative control and cells were incubated 48 hr. Then MTT solution (25 μl, 4 mg ml ^-1) was added to each well and the cells were incubated at 37 °C (for 3 hr). Finally, formazan crystals were dissolved in DMSO (100 μl) and plates were read in a plate reader (Synergy H4, USA) at 540 nm. The cytotoxic activity of the synthesized compounds was evaluated against different human cancer cell lines including […]-7 and MCF-7/MX, and normal cells by MTT assay. Combretastatin A-4 (CA-4) was used as the positive control.

[2] = system: MCF-7/MX; assay: MTT antiproliferative activity assay; assay type: cell-based; conditions: Homo sapiens, MCF7/MX, read-out: IC50 MCF-7/MX
Method: as §1

[3] = system: MCF-7; assay: MTT antiproliferative activity assay; assay type: cell-based; conditions: Homo sapiens, MCF7, 48 hr
Method: as §1

[4] = system: A2780/RCIS; assay: MTT antiproliferative activity assay; assay type: cell-based; conditions: Homo sapiens, read-out: IC50 A2780/RCIS
Method: as §1

[5] = system: A2780; assay: MTT antiproliferative activity assay; assay type: cell-based; conditions: Homo sapiens, 48 hr
Method: as §1

[6] = molecular target: T1, tubulin (Sus scrofa, UniProt P02550+P02554); assay: In vitro tubulin polymerization assay (fluorescence kit); assay type: biochemical; conditions: compound 20 µM; CA-4 5 µM
T1 construct: purchased cytoskeleton BK011P
T1 sequence (P02550 whole entry): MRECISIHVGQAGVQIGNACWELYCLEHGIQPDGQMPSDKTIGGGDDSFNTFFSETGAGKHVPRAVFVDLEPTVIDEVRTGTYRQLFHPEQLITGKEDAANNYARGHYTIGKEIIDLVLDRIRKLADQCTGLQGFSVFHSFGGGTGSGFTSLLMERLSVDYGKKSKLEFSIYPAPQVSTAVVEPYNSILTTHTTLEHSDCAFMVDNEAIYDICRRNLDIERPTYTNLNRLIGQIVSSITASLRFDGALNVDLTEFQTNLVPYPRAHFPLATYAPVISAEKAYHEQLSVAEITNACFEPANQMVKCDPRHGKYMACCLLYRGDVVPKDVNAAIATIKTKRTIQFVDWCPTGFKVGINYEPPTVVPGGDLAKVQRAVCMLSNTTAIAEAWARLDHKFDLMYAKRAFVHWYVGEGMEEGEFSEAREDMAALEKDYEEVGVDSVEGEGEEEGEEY
T1 sequence (P02554 whole entry): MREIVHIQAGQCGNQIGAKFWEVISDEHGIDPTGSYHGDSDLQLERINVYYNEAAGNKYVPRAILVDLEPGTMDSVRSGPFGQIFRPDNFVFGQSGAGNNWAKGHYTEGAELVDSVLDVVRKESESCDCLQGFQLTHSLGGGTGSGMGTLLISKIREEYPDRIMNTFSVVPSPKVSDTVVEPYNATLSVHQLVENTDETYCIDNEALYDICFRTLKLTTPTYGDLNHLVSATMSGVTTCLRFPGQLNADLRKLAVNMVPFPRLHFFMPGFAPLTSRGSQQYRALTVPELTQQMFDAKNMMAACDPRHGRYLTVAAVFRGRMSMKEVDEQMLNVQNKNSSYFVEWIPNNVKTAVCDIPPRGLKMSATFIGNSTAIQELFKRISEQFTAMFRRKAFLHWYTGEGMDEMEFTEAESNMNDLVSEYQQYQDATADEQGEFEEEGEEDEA
Method: A commercial kit (cytoskeleton, cat. #BK011P) was used to evaluate the tubulin polymerization inhibition activity of compounds ([37]). Briefly, tubulin protein was added to tubulin buffer (80 mM PIPES, 2 mM MgCl2, 0.5 mM EGTA, 1 mM GTP, […], PH 6.9) and the acquired mixture was added to wells of a 96-well plate comprising the cytotoxic compounds or vehicle. Tubulin polymerization was observed by detecting the fluorescence augmentation due to the addition of a fluorescence reporter into microtubules as polymerization occurred. Polymerization was measured by excitation at 360 nm and emission at 420 nm for 1 hr at 1 min intervals in a plate reader (Synergy H4, USA). CA-4 (5 μM) and paclitaxel (3 μM) were used as positive destabilizing and positive stabilizing controls, respectively.
In order to check if the cytotoxic activity of our quinolines was correlated to their ability to inhibit tubulin, compounds 7e and 7f and CA4 (polymerization suppressor) and paclitaxel (polymerization promoter) were assessed for their activity in a microtubule polymerization assay.

[7] = system: A2780/RCIS cancer cells; assay: Cell cycle analysis by flow cytometry (PI); assay type: cell-based, human; conditions: 48 hr
Excerpt: (§2) Flow cytometry with propidium iodide (PI) was used to analyze the cell numbers in the cell cycle phases. […] Flowjo software 7.6 was used to analyze the data regarding the cell numbers in different phases of the cell cycle.
(§3) Tubulin inhibitors arrest cell cycle at the G2/M phase in cancer cells owing to destruction of the microtubular cytoskeleton. To get more understanding of the mechanism of action, the effects of compounds 7f and 7e on the cell cycle were examined by ﬂow cytometry in four human cancer cell lines (MCF-7, MCF-7/MX, A2780, and A2780/RCIS). […] When A2780 cancer cells were treated with 7f and 7e for 48 hr, the percentage of cells in the G2/M phase was 15.70% (7f, 1 μM), 17.74% (7f, 10 μM), 23.30% (7e, 5μM), and 4.15% (7e, 15μM) compared with the negative control (4.84%). Moreover, the percentage of A2780 cancer cells in the subG1 phase was 18.58% (7f, 10 μM) and 68.16% (7e, 15 μM).

[8] = system: MCF-7 cancer cells; assay: Cell cycle analysis by flow cytometry (PI); assay type: cell-based, human; conditions: 48 hr
Excerpt: as §2, §3

[9] = system: MCF-7/MX cancer cells; assay: Cell cycle analysis by flow cytometry (PI); assay type: cell-based, human; conditions: 48 hr
Excerpt: as §2, §3

[10] = system: A2780 cancer cells; assay: Cell cycle analysis by flow cytometry (PI); assay type: cell-based, human; conditions: 48 hr
Excerpt: as §2, §3

[11] = system: A2780, A2780/RCIS, MCF-7 and MCF-7/MX; assay: MTT assay, statements over all four cancer cell lines; assay type: cell-based; conditions: Homo sapiens, range over four cell lines, read-out: IC50 values range against all four human cancer cells
Method: as §1

[12] = system: A2780 cells; assay: Apoptosis assay (Annexin V/PI staining); assay type: cell-based, human; conditions: 24 hr
Method: A2780 cells ([…]) were seeded in six-well plates and incubated overnight. Then the medium was replaced with a complete medium containing compound 7e (3 and 15 µM concentrations). After 24 hr incubation, the cells were […] and washed with PBS and incubated with buffer including 10 mM HEPES, 140 mM NaCl, and 2.5 mM CaCl2 (pH 7.4) and also PI and annexin V-FITC at room temperature (20 min) ([38]). The samples were analyzed using a flow cytometer (Beckman Coulter), and the results were assessed using the Flowjo software.
Then, to investigate the mode of cell death caused by 7e, flow cytometry was done using propidium iodide (PI) ([19]), which only colors DNA and only enter dead cells, and Annexin-V (the fluorescence probe), which binds to the early apoptotic cells selectively ([20]).

Row | Compound | IC50 [3] | IC50 [5] | IC50 ([2]; MTT, 48 hr) | IC50 ([4]; A2780, MTT, 48 hr) | melting point | IC50 [1] | further results
1 | COc1ccc(/C=C\c2cc(OC)c(OC)c(OC)c2)cc1O [CA-4, Combretastatin A-4, reference compound] | 0.438 ± 0.15 µM | 0.249 ± 0.091 µM |  |  |  | 0.565 ± 0.26 µM | IC50 ([2]; 48 h): 1.49 ± 0.27 µM; IC50 ([4]; A2780, 48 h): 0.229 ± 0.11 µM
2 | COc1cc2nc(C)cc(Nc3ccc(C(=O)c4ccccc4)cc3)c2c(OC)c1OC [Compound 7e] | 33 ± 2.51 µM | 11.3 ± 1.47 µM | 10.9 ± 1.28 µM | 6.66 ± 1.35 µM |  | > 100 µM | tubulin polymerization inhibition [6]: inhibited tubulin polymerization in a way similar to that of CA-4; G2/M ([7]; 1 μM): 24.91%; G2/M ([7]; 5 μM): 25.93%; G2/M ([8]; MCF-7, 20 μM): 25.91%; G2/M ([8]; MCF-7, 30 μM): 34.45%; G2/M ([9]; 1 μM): 25.41%; G2/M ([9]; 10 μM): 37.85%; G2/M ([10]; A2780, 5 μM): 23.30%; G2/M ([10]; A2780, 15 μM): 4.15%; SubG1 ([10]; A2780, 15 μM): 68.16%; IC50 [11]: 5.02 to 35.8 µM; total apoptotic cells including early and late apoptotic cells ([12]; A2780, 3 µM): 8.02%; total apoptotic cells including early and late apoptotic cells ([12]; A2780, 15 µM): 28.57%
3 | COc1cc2nc(C)cc(Nc3ccccc3Oc3ccccc3)c2c(OC)c1OC [Compound 7g, 5,6,7-Trimethoxy-2-methyl-N-(2-phenoxyphenyl)quinolin-4-amine] | 35.8 ± 3.29 µM | 12.1 ± 2.17 µM | 16.3 ± 2.39 µM | 10.1 ± 2.25 µM | 150 to 153 °C | 27.7 ± 2.63 µM | IC50 [11]: 5.02 to 35.8 µM
4 | COc1cc2nc(/C=C/c3ccccc3)cc(Cl)c2c(OC)c1OC [Compound 9a, E-4-Chloro-5,6,7-trimethoxy-2-styrylquinoline] | 63.7 ± 5.27 µM | 30.5 ± 3.22 µM | 64.6 ± 5.29 µM | 46.2 ± 3.57 µM | 110 to 113 °C | 74 ± 5.95 µM | 
5 | COc1cc2nc(/C=C/c3ccc(C)cc3)cc(Cl)c2c(OC)c1OC [Compound 9b, E-4-Chloro-5,6,7-trimethoxy-2-(4-methylstyryl)quinoline] | > 100 µM | > 100 µM | > 100 µM | > 100 µM | 153 to 155 °C | > 100 µM | 
6 | COc1cc2nc(/C=C/c3ccc(F)cc3)cc(Cl)c2c(OC)c1OC [Compound 9c, E-4-Chloro-5,6,7-trimethoxy-2-(4-fluorostyryl)quinoline] | > 100 µM | > 100 µM | > 100 µM | > 100 µM | 173 to 176 °C | > 100 µM | 
7 | COc1ccc(/C=C/c2cc(Cl)c3c(OC)c(OC)c(OC)cc3n2)cc1 [Compound 9d, E-4-Chloro-5,6,7-trimethoxy-2-(4-methoxystyryl)quinoline] | 42.8 ± 3.48 µM | 39.9 ± 3.74 µM | 44.1 ± 3.57 µM | 33.8 ± 3.48 µM |  | 96.2 ± 5.38 µM | 
8 | COc1cc2nc(/C=C/c3ccc([N+](=O)[O-])cc3)cc(Cl)c2c(OC)c1OC [Compound 9g, E-4-Chloro-5,6,7-trimethoxy-2-(4-nitrostyryl)quinoline] | > 100 µM | > 100 µM | > 100 µM | > 100 µM | 162 to 164 °C | > 100 µM | 

The next lines start with results.

Row | IC50 [3] | IC50 [5] | IC50 ([2]; MTT, 48 hr) | IC50 ([4]; A2780, MTT, 48 hr) | melting point | Compound | IC50 [1] | further results
9 | 55.3 ± 5.37 µM | 16.4 ± 2.13 µM | 65.9 ± 4.42 µM | 29.9 ± 2.87 µM | 191 to 194 °C | COc1ccc(Nc2cc(C)nc3cc(OC)c(OC)c(OC)c23)cc1 [Compound 7a, 5,6,7-Trimethoxy-N-(4-methoxyphenyl)-2-methylquinolin-4-amine] | 55.9 ± 3.87 µM | 
10 | 63.7 ± 4.35 µM | 27.1 ± 3.25 µM | 62.8 ± 5.27 µM | 51.5 ± 4.86 µM | 182 to 185 °C | COc1ccc(Nc2cc(C)nc3cc(OC)c(OC)c(OC)c23)cc1OC [Compound 7b, N-(3,4-dimethoxyphenyl)-5,6,7-trimethoxy-2-methylquinolin-4-amine] | > 100 µM | 
11 | > 100 µM | 80.2 ± 5.23 µM | 69.8 ± 4.85 µM | > 100 µM | 175 to 178 °C | COc1cc(Nc2cc(C)nc3cc(OC)c(OC)c(OC)c23)cc(OC)c1OC [Compound 7c, 5,6,7-Trimethoxy - 2-methyl - -N-(3,4,5-methoxyphenyl) quinolin-4-amine] | > 100 µM | 
12 | 53.6 ± 3.66 µM | 29.6 ± 2.98 µM | 78.2 ± 5.37 µM | 44.7 ± 2.76 µM | 182 to 184 °C | COc1ccc(Nc2cc(C)nc3cc(OC)c(OC)c(OC)c23)cc1O [Compound 7d, 2-Methoxy-5-((5,6,7-trimethoxy-2-methylquinolin-4-yl)amino)phenol] | 62.7 ± 5.42 µM | 
13 | 10.1 ± 1.63 µM | 8.43 ± 1.85 µM | 9.04 ± 1.2 µM | 5.02 ± 1.14 µM | 192 to 195 °C | COc1cc2nc(C)cc(Nc3ccc(Oc4ccccc4)cc3)c2c(OC)c1OC [Compound 7f, 5,6,7-Trimethoxy-2-methyl-N-(4-phenoxyphenyl)quinolin-4-amine] | 8.9 ± 1.26 µM | tubulin polymerization inhibition [6]: inhibited tubulin polymerization in a way similar to that of CA-4; G2/M ([7]; 1 μM): 20.68%; G2/M ([7]; 5 μM): 19.38%; G2/M ([8]; MCF-7, 1 μM): 19.01%; G2/M ([8]; MCF-7, 10 μM): 24.01%; G2/M ([9]; 10 μM): 23.73%; G2/M ([9]; 20 μM): 29.37%; G2/M ([10]; A2780, 1 μM): 15.70%; G2/M ([10]; A2780, 10 μM): 17.74%; SubG1 ([10]; A2780, 10 μM): 18.58%; IC50 [11]: 5.02 to 35.8 µM
14 | > 100 µM | > 100 µM | > 100 µM | > 100 µM | 122 to 124 °C | COc1ccc(/C=C/c2cc(Cl)c3c(OC)c(OC)c(OC)cc3n2)cc1OC [Compound 9e, E-4-Chloro-5,6,7-trimethoxy-2-(3,4-dimethoxystyryl)quinoline] | > 100 µM | 
15 | > 100 µM | 47.9 ± 4.25 µM | 28 ± 2.64 µM | 11.7 ± 2.63 µM | 163 to 165 °C | COc1cc(/C=C/c2cc(Cl)c3c(OC)c(OC)c(OC)cc3n2)cc(OC)c1OC [Compound 9f, E-4-Chloro-5,6,7-trimethoxy-2-(3,4,5-trimethoxystyryl)quinoline] | > 100 µM | 
